Laboratory results from ChEMBL document CHEMBL3407491, “Synthesis, characterization and in vitro photodynamic antimicrobial activity of basic amino acid-porphyrin conjugates” (Eur J Med Chem, 2015).
Converted amounts (≈) assume the structure as drawn. The source made the active and inactive calls. The calls are words filed in the database; no cut-off is given here.

Tests used:
Pseudomonas aeruginosa [1] = assay: Bactericidal activity against Pseudomonas aeruginosa ATCC 27853 incubated in dark for 30 mins followed by exposure to light fluences at 650 nm and 6 J/cm2 and then incubated overnight followed by further incubation on LB agar plates for another 24 hrs; type: functional; conditions: ATCC 27853, light or radiation study
Pseudomonas aeruginosa [2] = assay: Antibacterial activity against Pseudomonas aeruginosa ATCC 27853 incubated in dark for 30 mins and grown for 24 hrs followed by further incubation on LB agar plates for another 24 hrs; type: functional
[3] = Singlet oxygen generation of the compound exposed to 4.2 mW/cm2 light energy density assessed as singlet oxygen quantum yield measured at 410 nm in 10 seconds intervals of irradiation at 0.2 uM by DPBF scavenger based assay
Escherichia coli [4] = assay: Antibacterial activity against Escherichia coli ATCC 25922 incubated in dark for 30 mins followed by exposure to light fluences at 650 nm and 6 J/cm2 and then incubated overnight measured after 24 hrs; type: functional; conditions: ATCC 25922, light or radiation study
Escherichia coli [5] = assay: Antibacterial activity against Escherichia coli ATCC 25922 incubated in dark for 30 mins measured after 24 hrs; type: functional
Staphylococcus aureus [6] = assay: Antibacterial activity against methicillin-resistant Staphylococcus aureus incubated in dark for 30 mins measured after 24 hrs; type: functional
Escherichia coli [7] = assay: Antibacterial activity against Escherichia coli ATCC 25922 incubated in dark for 30 mins and grown for 24 hrs followed by further incubation on LB agar plates for another 24 hrs; type: functional
[8] = Photostability at 2 x 10^-5 mol/L exposed to 4.2 mW/cm2 light energy density assessed as change in absorption spectra after 30 mins post irradiation; type: physicochemical; conditions: 0.5 h, 20 µM
Pseudomonas aeruginosa [9] = assay: Antibacterial activity against Pseudomonas aeruginosa ATCC 27853 assessed as log reduction in bacterial count at 10 uM incubated in dark for 30 mins followed by exposure to light fluences at 650 nm and 6 J/cm2 and then incubated overnight measured after 24 hrs; type: functional
Pseudomonas aeruginosa [10] = assay: Antibacterial activity against Pseudomonas aeruginosa ATCC 27853 incubated in dark for 30 mins followed by exposure to light fluences at 650 nm and 6 J/cm2 and then incubated overnight measured after 24 hrs; type: functional; conditions: ATCC 27853, light or radiation study
[11] = Octanol water partition coefficient, log P of the compound by reverse-phase thin-layer chromatography; type: physicochemical
Escherichia coli [12] = assay: Antibacterial activity against Escherichia coli ATCC 25922 assessed as log reduction in bacterial count at 10 uM incubated in dark for 30 mins followed by exposure to light fluences at 650 nm and 6 J/cm2 and then incubated overnight measured after 24 hrs; type: functional
Pseudomonas aeruginosa [13] = assay: Antibacterial activity against Pseudomonas aeruginosa ATCC 27853 incubated in dark for 30 mins measured after 24 hrs; type: functional
Escherichia coli [14] = assay: Bactericidal activity against Escherichia coli ATCC 25922 incubated in dark for 30 mins followed by exposure to light fluences at 650 nm and 6 J/cm2 and then incubated overnight followed by further incubation on LB agar plates for another 24 hrs; type: functional; conditions: ATCC 25922, light or radiation study
Staphylococcus aureus [15] = assay: Bactericidal activity against methicillin-resistant Staphylococcus aureus incubated in dark for 30 mins followed by exposure to light fluences at 650 nm and 6 J/cm2 and then incubated overnight followed by further incubation on LB agar plates for another 24 hrs; type: functional; conditions: light or radiation study
Staphylococcus aureus [16] = assay: Antibacterial activity against methicillin-resistant Staphylococcus aureus assessed as log reduction in bacterial count at 10 uM incubated in dark for 30 mins followed by exposure to light fluences at 650 nm and 6 J/cm2 and then incubated overnight measured after 24 hrs; type: functional
Staphylococcus aureus [17] = assay: Antibacterial activity against methicillin-resistant Staphylococcus aureus incubated in dark for 30 mins and grown for 24 hrs followed by further incubation on LB agar plates for another 24 hrs; type: functional
Staphylococcus aureus [18] = assay: Antibacterial activity against methicillin-resistant Staphylococcus aureus incubated in dark for 30 mins followed by exposure to light fluences at 650 nm and 6 J/cm2 and then incubated overnight measured after 24 hrs; type: functional; conditions: light or radiation study
Escherichia coli [19] = assay: Antibacterial activity against Escherichia coli ATCC 25922 at 0.49 uM to 7.8 uM incubated in dark for 30 mins followed by exposure to light fluences at 650 nm and 6 J/cm2 and then incubated overnight measured after 24 hrs; type: functional, organism-based
Escherichia coli [20] = assay: Antibacterial activity against Escherichia coli ATCC 25922 assessed as log reduction in bacterial count at 2 uM incubated in dark for 30 mins followed by exposure to light fluences at 650 nm and 6 J/cm2 and then incubated overnight measured after 24 hrs; type: functional
[21] = Toxicity against human […] cells irradiated with 6 J/cm2 radiation assessed as cell viability at 7.81 uM by MTT assay; type: cell-based; conditions: read-out: Activity
[22] = Toxicity against human […] cells assessed as reduction in cell viability by MTT assay; type: cell-based
Pseudomonas aeruginosa [23] = assay: Antibacterial activity against Pseudomonas aeruginosa ATCC 27853 at 3.91 uM to 62.50 uM incubated in dark for 30 mins followed by exposure to light fluences at 650 nm and 6 J/cm2 and then incubated overnight measured after 24 hrs; type: functional, organism-based
Pseudomonas aeruginosa [24] = assay: Antibacterial activity against Pseudomonas aeruginosa ATCC 27853 assessed as log reduction in bacterial count at 7.81 uM incubated in dark for 30 mins followed by exposure to light fluences at 650 nm and 6 J/cm2 and then incubated overnight measured after 24 hrs; type: functional, organism-based
[25] = Toxicity against human […] cells assessed as cell viability at 3.91 to 62.5 uM under dark conditions by MTT assay; type: cell-based; conditions: read-out: Activity
Escherichia coli [26] = assay: Drug uptake in Escherichia coli ATCC 25922 at 12.5 uM by confocal laser scanning microscopy; type: ADME, organism-based; conditions: in vivo
Escherichia coli [27] = assay: Antibacterial activity against Escherichia coli ATCC 25922 at 3.91 uM to 62.50 uM incubated in dark for 30 mins followed by exposure to light fluences at 650 nm and 6 J/cm2 and then incubated overnight measured after 24 hrs; type: functional, organism-based
Pseudomonas aeruginosa [28] = assay: Antibacterial activity against Pseudomonas aeruginosa ATCC 27853 assessed as log reduction in bacterial count at 3.5 uM incubated in dark for 30 mins followed by exposure to light fluences at 650 nm and 6 J/cm2 and then incubated overnight measured after 24 hrs; type: functional
Escherichia coli [29] = assay: Antibacterial activity against Escherichia coli ATCC 25922 assessed as log reduction in bacterial count at 7.81 uM incubated in dark for 30 mins followed by exposure to light fluences at 650 nm and 6 J/cm2 and then incubated overnight measured after 24 hrs; type: functional, organism-based
[30] = Stability in mouse serum assessed as compound remaining after 24 hrs by RP-HPLC method; type: ADME; conditions: read-out: Stability
Staphylococcus aureus [31] = assay: Antibacterial activity against methicillin-resistant Staphylococcus aureus assessed as log reduction in bacterial count at 2 uM incubated in dark for 30 mins followed by exposure to light fluences at 650 nm and 6 J/cm2 and then incubated overnight measured after 24 hrs; type: functional
Staphylococcus aureus [32] = assay: Drug uptake in methicillin-resistant Staphylococcus aureus at 12.5 uM by confocal laser scanning microscopy; type: ADME, organism-based; conditions: in vivo
Pseudomonas aeruginosa [33] = assay: Antibacterial activity against Pseudomonas aeruginosa ATCC 27853 at 0.49 uM to 7.8 uM incubated in dark for 30 mins followed by exposure to light fluences at 650 nm and 6 J/cm2 and then incubated overnight measured after 24 hrs; type: functional, organism-based
Staphylococcus aureus [34] = assay: Antibacterial activity against methicillin-resistant Staphylococcus aureus at 0.49 uM to 7.8 uM incubated in dark for 30 mins followed by exposure to light fluences at 650 nm and 6 J/cm2 and then incubated overnight measured after 24 hrs; type: functional, organism-based
Pseudomonas aeruginosa [35] = assay: Drug uptake in Pseudomonas aeruginosa ATCC 27853 at 12.5 uM by confocal laser scanning microscopy; type: ADME, organism-based; conditions: in vivo

SMILES | MBC (Pseudomonas aeruginosa [1]) | MBC (Pseudomonas aeruginosa [2]) | Activity [3] | MIC (Escherichia coli [4]) | MIC (Escherichia coli [5]) | MIC (Staphylococcus aureus [6]) | MBC (Escherichia coli [7]) | Activity [8] | log reduction in bacterial count (Pseudomonas aeruginosa [9]) | MIC (Pseudomonas aeruginosa [10]) | logP [11] | log reduction in bacterial count (Escherichia coli [12]) | MIC (Pseudomonas aeruginosa [13]) | MBC (Escherichia coli [14]) | MBC (Staphylococcus aureus [15]) | Log reduction in bacterial count (Staphylococcus aureus [16]) | MBC (Staphylococcus aureus [17]) | MIC (Staphylococcus aureus [18]) | other results
NCCCC[C@H](N)C(=O)Nc1ccc(-c2c3nc(c(-c4ccc(NC(=O)[C@@H](N)CCCCN)cc4)c4ccc([nH]4)c(-c4ccc(NC(=O)[C@@H](N)CCCCN)cc4)c4nc(c(-c5ccc(N)cc5)c5ccc2[nH]5)C=C4)C=C3)cc1 | 62.5 µM (≈ 66.2 µg/mL) | > 500 µM | 0.73 | 15.6 µM (≈ 16.5 µg/mL) | 125 µM (≈ 132 µg/mL) | 125 µM (≈ 132 µg/mL) | > 500 µM | < 20% | 1 | 31.2 µM (≈ 33.1 µg/mL) | 1.21 | 3 | 250 µM (≈ 265 µg/mL) | 31.2 µM (≈ 33.1 µg/mL) | 62.5 µM (≈ 66.2 µg/mL) | 3 | 500 µM (≈ 530 µg/mL) | 31.2 µM (≈ 33.1 µg/mL) | –
NCCCC[C@H](N)C(=O)Nc1ccc(-c2c3nc(c(-c4ccc(N)cc4)c4ccc([nH]4)c(-c4ccc(NC(=O)[C@@H](N)CCCCN)cc4)c4nc(c(-c5ccc(N)cc5)c5ccc2[nH]5)C=C4)C=C3)cc1 | 31.2 µM (≈ 29.1 µg/mL) | 500 µM (≈ 466 µg/mL) | 0.79 | 15.6 µM (≈ 14.6 µg/mL) | 250 µM (≈ 233 µg/mL) | 125 µM (≈ 116 µg/mL) | 500 µM (≈ 466 µg/mL) | < 20% | >5 | 15.6 µM (≈ 14.6 µg/mL) | 1.3 | 2 | 250 µM (≈ 233 µg/mL) | 31.2 µM (≈ 29.1 µg/mL) | 15.6 µM (≈ 14.6 µg/mL) | 3 | 250 µM (≈ 233 µg/mL) | 7.81 µM (≈ 7.27 µg/mL) | –
NCCCC[C@H](N)C(=O)Nc1ccc(-c2c3nc(c(-c4ccc(NC(=O)[C@@H](N)CCCCN)cc4)c4ccc([nH]4)c(-c4ccc(NC(=O)[C@@H](N)CCCCN)cc4)c4nc(c(-c5ccc(NC(=O)[C@@H](N)CCCCN)cc5)c5ccc2[nH]5)C=C4)C=C3)cc1 | 15.6 µM (≈ 18.5 µg/mL) | > 500 µM | 0.95 | 1.95 µM (≈ 2.32 µg/mL) | 62.5 µM (≈ 74.2 µg/mL) | 62.5 µM (≈ 74.2 µg/mL) | 125 µM (≈ 148 µg/mL) | < 20% | – | 7.81 µM (≈ 9.27 µg/mL) | 0.9 | – | 250 µM (≈ 297 µg/mL) | 3.91 µM (≈ 4.64 µg/mL) | 7.81 µM (≈ 9.27 µg/mL) | – | 125 µM (≈ 148 µg/mL) | 3.91 µM (≈ 4.64 µg/mL) | Activity (Escherichia coli [19]): Dose-dependent effect; FC (Escherichia coli [20]): 3; viability at 7.81 µM [21]: > 85%; Activity [22]: Dose-dependent effect; Activity (Pseudomonas aeruginosa [23]): Dose-dependent effect; Activity (Pseudomonas aeruginosa [24]): Active; viability at 62.5 µM [25]: > 90%; Drug uptake (Escherichia coli [26]): Active; Activity (Escherichia coli [27]): Dose-dependent effect; FC (Pseudomonas aeruginosa [28]): 3; Activity (Escherichia coli [29]): Active; remaining at 24 h [30]: 85%; FC (Staphylococcus aureus [31]): 3; Drug uptake (Staphylococcus aureus [32]): Active; Activity (Pseudomonas aeruginosa [33]): Dose-dependent effect; Activity (Staphylococcus aureus [34]): Dose-dependent effect; Drug uptake (Pseudomonas aeruginosa [35]): Active
